Results as given in US8993593B2, “N-(4-(6-fluoro-3,4-dihydroisoquinolin-2(1H)-yl)-2,6-dimethylphenyl)-3,3-dimethylbutanamide as potassium channel modulators” (Valeant Pharmaceuticals International, priority 2006, dated 2015).

Assays:
KCNQ2/3 = KCNQ2/3 (Homo sapiens, UniProt O43525+O43526); experiment: Two-electrode voltage-clamp in Xenopus laevis oocytes, KCNQ2/3; format: cell-based
Description: (§1) Female Xenopus laevis extracted ovaries were purchased from eNASCO (LM00935MX, eNASCO Fort Atkinson, Wis.). […] Approximately 50 nl cRNA (about 50 ng) was injected for KCNQ1, KCNQ4, and KCNQ5 using a Nanoject microinjector (Drummond, Broomall, Pa., USA). For co-expression of KCNQ2 and KCNQ3 and of KCNQ1 and KCNE1, cRNA's were mixed in equal molar ratios before injection of approximately 50 nl. […] Oocytes were kept in Culture Barth solution at 19° C. which was changed daily and currents were recorded after 3 to 5 days.
(§2) KCNQ channel currents expressed in Xenopus laevis oocytes were recorded using a two-electrode voltage-clamp. […] The oocytes were placed in custom built perfusion chambers connected to a continuous flow system and impaled with a current electrode and a voltage-clamp electrode pulled from borosilicate glass on a Flaming/Brown Micropipette Puller (Sutter Instruments Co, Novato, Calif., USA).
(§3) All compounds were dissolved in DMSO to obtain concentrated stock solutions. On the day of electrophysiological experiments the stock solutions were thawed and diluted in recording solution to their final concentrations. The final DMSO concentration never exceeded 0.1%. Compound delivery was performed using a custom built multi-barrel apparatus connected to the flow system.
(§4) Data were acquired by means of an Axograph X software (Axograph Scientific, Sydney, AU) and analyzed using Graph Pad Prism (GraphPad Software Inc., CA, USA). […]
(§5) After steady channel current was recorded in the presence of Retigabine at its EC75, recorded oocyte was washed with the recording solution until its steady current returned to its normal level without the presence of any drugs. Then the channel steady current was recorded in the presence of the test compound at its EC75. The percent efficacy was then expressed as: % efficacy=(C2/C 1)×100 where C2 is the recorded steady current in the presence of follow-on compound at its EC75 and C1 is the recorded steady current in the presence of Retigabine at its EC75.

KCNQ4 = KCNQ4 (Homo sapiens, UniProt P56696); experiment: Two-electrode voltage-clamp in Xenopus laevis oocytes, KCNQ4; format: cell-based
Description: as §1, §2, §3, §4, §5

KCNQ1 = KCNQ1 (Homo sapiens, UniProt P51787); experiment: Two-electrode voltage-clamp in Xenopus laevis oocytes, KCNQ1; format: cell-based; parameters: KCNQ1 Block (%): dose or concentration left out as unconfirmed
Description: as §1, §2, §3, §4, §5

[1] = system: rat MES model of epilepsy; experiment: Maximal electroshock seizure (MES) test, rat; format: in vivo; details: po; rat MES model, dosed orally 1 hour prior to testing; read-out: ED50, inhibition of seizures
Source text: The MES testing protocol is based on procedures established at the National Institute of Neurological Disorders and Stroke in conjunction with the Anticonvulsant Screening Program (ASP) at the University of Utah (White, H. S., Woodhead, J. H., Wilcox, K. S., Stables, J. P., Kupferberg, H. J and Wolf, H. H. 2002. “General Principles: Discovery and Preclinical Development of Antiepileptic Drugs,” in Antiepileptic Drugs, 5th Edition, R. H. Levy, ed.; R. H. Mattson, B. S. Meldrum, and E. Perucca. Philadelphia, Lippincott Williams & Wilkins.), The goal of the test rapid identification and characterization of the in vivo anticonvulsant activity of any compounds that have been shown active in PC-12 cellular based Rb^+ efflux assay.
Adult male CF-I albino mice (18-25 g, Charles River Laboratories) are exclusively used for in-house MES screen of compounds. Male Sprague-Dawley albino rats (100-125 g, Charles River Laboratories) are also used to test anticonvulsant compounds. Variability of test outcomes is reduced by using animals of the same sex, age, and weight. Animals are permitted to rest and recover from transit for at least 48 hr prior to experimentation. Animals are used for AED testing only once. In some instances, the animals may be anesthetized prior to blood collection and/or whole brain extraction for pharmacokinetic assay. All animals are maintained and handled as outlined in standard animal care guidelines.
In the experiments, testing compounds are prepared as suspensions in 0.5% methyl cellulose (Sigma, Cat #M0512, Viscosity 4000 cP at 20° C.) in water, regardless of solubility. Dry powder compounds are initially ground with a glass rod in a test tube in several drops of methyl cellulose to create a paste and to break down any large chunks. After several minutes of grinding, the volume of the suspension is increased to the final concentration desired. The suspension is then sonicated using a Branson sonicator model 3510 in a water bath at room temperature for 15 minutes. Compound suspensions are further vortexed prior to animal dosing. In some of the cases, DMSO is used to initially solubilize compounds in small volumes and then this solution is added to the 0.5% methyl cellulose solution, in order to create more even and less aggregated compound suspensions. The final concentration of DMSO is 3.75%, an amount with no apparent toxicity or neuroprotective effects in our usual rotarod and MES tests. Methyl cellulose/DMSO compound suspensions are identically prepared for intraperitoneally (i.p.) to mice or orally (p.o.) to rat dosing.
Initially the animals are weighed with an electronic scale and then marked. Data recording sheets are generated for each compound assessment. Mice or rats are dosed with the compound suspension at 0.01 mL/g of body weight. The typical injection volume range is between 180-250 μl for mice. Compounds are dosed by i.p. to mice using a 25 or 22 gauge needle, depending on the viscosity of the suspension. Rats are p.o. dosed using a flexible feeding tube, typically starting at a compound dose of 5 mg/kg.
A Rodent Electroconvulsive Stimulator (Model 200, Hamit-Darvin-Freesh, Snow Canyon Clinic, Ivins, Utah) is used for MES testing. A 60-Hz alternating current (50 mA for mice; 150 mA for rats) is delivered for 0.2 seconds through corneal electrodes to the mice. […] Animals are monitored for hind limb tonic extension as the end point for this test. Current delivery is recorded as a measure of overall seizure-induction potential. […]

KCNQ1/NE1 = KCNQ1/NE1 (Homo sapiens, UniProt P51787); experiment: Two-electrode voltage-clamp in Xenopus laevis oocytes, KCNQ1/KCNE1; format: cell-based; parameters: dose or concentration left out as unconfirmed; details: oocyte expression
Sequence of KCNQ1/NE1 (P51787 whole entry): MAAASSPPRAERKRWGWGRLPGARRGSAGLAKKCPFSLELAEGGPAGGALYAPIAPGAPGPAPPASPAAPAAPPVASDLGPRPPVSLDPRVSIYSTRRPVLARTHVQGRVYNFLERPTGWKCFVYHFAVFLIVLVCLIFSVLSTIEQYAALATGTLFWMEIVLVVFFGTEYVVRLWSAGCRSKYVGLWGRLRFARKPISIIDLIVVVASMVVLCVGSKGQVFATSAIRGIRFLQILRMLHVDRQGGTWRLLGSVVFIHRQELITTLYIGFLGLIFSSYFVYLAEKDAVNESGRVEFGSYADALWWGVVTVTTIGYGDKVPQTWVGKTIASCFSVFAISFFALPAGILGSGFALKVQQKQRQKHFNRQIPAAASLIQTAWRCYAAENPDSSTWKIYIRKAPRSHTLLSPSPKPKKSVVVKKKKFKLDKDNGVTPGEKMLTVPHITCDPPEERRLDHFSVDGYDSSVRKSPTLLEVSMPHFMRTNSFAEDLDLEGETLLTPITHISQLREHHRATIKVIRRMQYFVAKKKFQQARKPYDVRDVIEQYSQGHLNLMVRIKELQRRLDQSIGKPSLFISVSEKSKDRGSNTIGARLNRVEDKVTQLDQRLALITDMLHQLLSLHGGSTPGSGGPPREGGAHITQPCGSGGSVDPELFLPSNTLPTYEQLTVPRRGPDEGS
Description: as §1
KCNQ channel currents expressed in Xenopus laevis oocytes were recorded using a two-electrode voltage-clamp. […]
as §4, §5

## Cc1cc(N2CCc3cc(F)ccc3C2)cc(C)c1NC(=O)CC(C)(C)C [compound A, N-[4-(6-fluoro-3,4-dihydro-1H-isoquinolin-2-yl)-2,6-dimethylphenyl]-3,3-dimethyl butanamide]
KCNQ2/3
  EC50: 350 nM
KCNQ2/3; oocyte expression, at EC75
  KCNQ2/3 Efficacy Relative to Retigabine (%): 143%
KCNQ4
  EC50: 630 nM
KCNQ4; oocyte expression, at EC75
  KCNQ4 Efficacy Relative to Retigabine (%): 100%
KCNQ1; oocyte expression
  KCNQ1 Block (%): 0%
KCNQ1; selectivity versus KCNQ2-5, in words
  effect on KCNQ1 (cardiac potential): not affecting
[1]
  ED50: 1.1 mg/kg
KCNQ1/NE1
  KCNQ1/NE1 Block (%): 3.5%
